Source: the NIST ThermoML archive (doi:10.1021/je2000952)
Numbers after ± are expanded uncertainties.

Conditions: Liquid, Closed cell (Static) method

Question: What does the source list for `C=C(F)C(F)(F)F` [2,3,3,3-tetrafluoro-1-propene]?
Answer: vapor or sublimation pressure (245.65 K): 110.3 ± 0.4 kPa; vapor or sublimation pressure (248.15 K): 122.6 ± 0.4 kPa; vapor or sublimation pressure (250.65 K): 136.1 ± 0.4 kPa; vapor or sublimation pressure (253.15 K): 150.7 ± 0.5 kPa; vapor or sublimation pressure (255.65 K): 166.4 ± 0.5 kPa; vapor or sublimation pressure (258.15 K): 183.6 ± 0.6 kPa; vapor or sublimation pressure (260.65 K): 201.9 ± 0.6 kPa; vapor or sublimation pressure (263.15 K): 221.6 ± 0.6 kPa; vapor or sublimation pressure (265.65 K): 242.5 ± 0.7 kPa; vapor or sublimation pressure (268.15 K): 265.2 ± 0.7 kPa; vapor or sublimation pressure (270.65 K): 289.7 ± 0.8 kPa; vapor or sublimation pressure (273.15 K): 315.7 ± 0.8 kPa; vapor or sublimation pressure (275.65 K): 343.3 ± 0.9 kPa; vapor or sublimation pressure (278.15 K): 372.8 ± 1 kPa; vapor or sublimation pressure (280.65 K): 404.1 ± 1 kPa; vapor or sublimation pressure (283.15 K): 437.4 ± 1.1 kPa; vapor or sublimation pressure (285.65 K): 472.9 ± 1.2 kPa; vapor or sublimation pressure (288.15 K): 510.3 ± 1.2 kPa; vapor or sublimation pressure (290.65 K): 549.9 ± 1.3 kPa; vapor or sublimation pressure (293.16 K): 591.8 ± 1.4 kPa; vapor or sublimation pressure (295.65 K): 636 ± 1.5 kPa; vapor or sublimation pressure (298.16 K): 682.7 ± 1.6 kPa; vapor or sublimation pressure (300.66 K): 731.9 ± 1.7 kPa; vapor or sublimation pressure (303.16 K): 783.6 ± 1.8 kPa; vapor or sublimation pressure (305.66 K): 838.1 ± 1.9 kPa; vapor or sublimation pressure (308.16 K): 895.3 ± 2 kPa; vapor or sublimation pressure (310.66 K): 955.5 ± 2.2 kPa; vapor or sublimation pressure (313.16 K): 1018.5 ± 2.3 kPa; vapor or sublimation pressure (315.66 K): 1084 ± 2.4 kPa; vapor or sublimation pressure (318.16 K): 1153.4 ± 2.5 kPa; vapor or sublimation pressure (320.66 K): 1225.8 ± 2.7 kPa; vapor or sublimation pressure (323.16 K): 1301.6 ± 2.8 kPa; vapor or sublimation pressure (325.65 K): 1381 ± 3 kPa; vapor or sublimation pressure (328.15 K): 1463.9 ± 3.1 kPa; vapor or sublimation pressure (330.66 K): 1550.6 ± 3.3 kPa; vapor or sublimation pressure (333.16 K): 1641.1 ± 3.5 kPa; vapor or sublimation pressure (335.66 K): 1735.7 ± 3.7 kPa; vapor or sublimation pressure (338.16 K): 1833.9 ± 3.8 kPa; vapor or sublimation pressure (340.66 K): 1936.6 ± 4 kPa; vapor or sublimation pressure (343.15 K): 2043.7 ± 4.2 kPa

Question: Which results are given for `FCC(F)(F)F` [1,1,1,2-tetrafluoroethane]?
Answer: vapor or sublimation pressure (283.13 K): 414.4 ± 1.2 kPa; vapor or sublimation pressure (293.14 K): 571.1 ± 1.4 kPa; vapor or sublimation pressure (303.12 K): 769.2 ± 1.8 kPa; vapor or sublimation pressure (313.11 K): 1014.9 ± 2.3 kPa; vapor or sublimation pressure (323.17 K): 1318.5 ± 2.9 kPa; vapor or sublimation pressure (333.16 K): 1681.1 ± 3.6 kPa; vapor or sublimation pressure (343.16 K): 2117.3 ± 4.3 kPa
